This note sets out measurements from patent publication US5919793A, “Heterocyclic derivatives” (Zeneca Limited, priority 1993, dated 1999).

What is called ED50 is the dose that gives a 50% effect, or the effect in half of the subjects. Low readings indicate greater potency, high ones weaker potency.

Assay [1] has as its system de novo hepatic cholesterol synthesis from 14C-acetate. As to the kind of experiment: Acute rat cholesterol synthesis assay. It is filed as in vivo. The conditions noted are these: inhibition of cholesterol synthesis. The method, then: (b) Acute rat cholesterol synthesis assay.
This is an acute in vivo test in the rat to measure de novo hepatic cholesterol synthesis from exogenously administered ^14 C-acetate.
Female rats (35-55 g) are housed in reverse lighting conditions (red light from 0200 h-1400 h) for a period of about 2 weeks prior to test. Animals are allowed free access to chow and drinking water throughout this period. At test, animals should weigh 125-150 g.
Test compounds may be administered by oral gavage, dissolved or suspended in 0.5% polysorbate, or by ip or iv dosing. Control animals receive vehicle alone. After 1 hour the rats are injected ip with 25 μCi [2-^14 C]-acetate (NEN DUPONT. specific activity, 45-60 mCi/mmol NEC-085H, or AHERSHAM specific activity, 50-60 mCi/mmol CFA 14) in a volume of 0.25 ml saline (100 μCi/ml). After a further hour, rats are terminally anaesthetised with halothane and a blood sample obtained from the abdominal vena cava.
1 ml of plasma is lyophilised and then saponified in 2 ml ethanolic KOH (1 part 33% KOH, 9 parts ethanol) at 75° C. for 2 hours. After addition of an equal quantity of water, non-saponifiable lipids are extracted with two 5 ml volumes of hexane. The hexane extracts are evaporated to dryness and the residues dissolved in ethanol to determine cholesterol specific radioactivity. ED50 values can be determined in the standard way.

Assay [2] has as its system squalene synthase (rat liver microsomal protein). As to the kind of experiment: Inhibition of Squalene synthase (formation of squalene from tritiated farnesyl pyrophosphate). It is filed as biochemical. The conditions noted are these: at 2.5 μM. The method, then: (a) Inhibition of Squalene synthase
In this test, the ability of a compound to prevent the formation of squalene from a radioactive substrate (tritiated farnesyl pyrophosphate) is assessed.
The test compound is incubated at a concentration of 25 micromolar in 200 μl of a buffered solution containing potassium phosphate (50 mM), MgCl2 (4.95 mM), KF (9.9 mM), NADPH (0.9 mM) and rat liver microsomal protein (20 μg). Rat liver microsomes are prepared by the method described in published European Patent Application No. 324,421 and stored in liquid nitrogen prior to assay. Assay vials are kept at 37° C. throughout the incubation.
The reaction is started with the addition of the substrate (1-[^3 H]-farnesyl pyrophosphate), final concentration 20 μM, and stopped after 15 minutes reaction time with the addition of 50 μl of 4% KOH. The reaction products are separated from unreacted substrate after application to a C-18 octadecyl 1 ccBond column (Analytichem Int product No. 617101). An aqueous fraction is eluted with 250 μl of 0.1M KOH. Squalene is then eluted with 1.0 ml 10% ethylacetate in hexane and radioactivity determined. The difference in radioactivity in the presence and absence of the test compound is used to determine the level of inhibition. […] The IC50 can then be determined from a plot of percentage inhibition against concentration of test compound.

For `COCCOc1cc(C)c(C#CC2(O)CN3CCC2CC3)c(C)c1` (centres unmarked) [Example 16], the ED50 in assay [1] was roughly 5.1 mg/kg. Also, the “inhibition of squalene synthase” value in assay [2] is “about 80%”.
